Patent publication US20090286713A9, “Collagen Receptor I-Domain Binding Modulators” (Biotie Therapies Corporation, priority 2005, published 2009)
pEC50: −log10 of the molar value.

Assays:
[1] = target: T1, α1 I-domain (Homo sapiens, UniProt P56199); assay: Solid-phase binding assay, α1 I-domain binding to type I collagen; conditions: at 0.05 mM concentration; FIG. 9
T1 construct: corresponding to amino acids 123-338 of the whole α1 integrin; made in house; host or cells: E. coli BL21 (pGEX-4T-3)
T1 sequence (P56199 151-366): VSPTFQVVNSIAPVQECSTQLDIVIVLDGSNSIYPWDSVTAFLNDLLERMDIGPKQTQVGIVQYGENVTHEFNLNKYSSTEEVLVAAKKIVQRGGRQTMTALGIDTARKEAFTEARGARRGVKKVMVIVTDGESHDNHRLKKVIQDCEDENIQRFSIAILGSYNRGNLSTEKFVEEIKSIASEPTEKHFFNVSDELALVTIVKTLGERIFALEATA
Description: Solid-phase binding assay for α1-domains—The coating of a 96-well high binding microtiter plate (Nune) was done by exposure to 0.1 ml of PBS containing 5 μg/cm2 (15 μg/ml) collagens or 20 μg/ml triple-helical peptides overnight at +4° C. Blank wells were coated with 1:1 solution of 0.1 ml Delfia® Diluent II (Wallac) and PBS. Residual protein absorption sites on all wells were blocked with 1:1 solution of 0.1 ml Delfia® Diluent II (Wallac) and PBS. Recombinant proteins (αI-GST) were added to the coated wells at a desired concentration in Delfia® Assay Buffer and incubated for 1 h at room temperature. Europium-labelled anti-GST antibody (Wallac) was then added (typically 1:1000), and the mixture was incubated for 1 h at room temperature. All incubations mentioned above were done in the presence of 2 mM MgCl2. Delfia® enhancement solution (Wallac) was added to each well and the Europium signal was measured by time-resolved fluorometry (Victor2 multilabel counter, Wallac). At least three parallel wells were analyzed. In some cases some what modified solid-phase assay was used and it was performed according Tulla et al, 2001. It uses anti-GST and Europium-labelled protein G instead of Europium-labelled anti-GST antibody.
The tetracyclic Streptomyces compounds synthesised in Example 1, where screened for inhibition of collagen binding to α1 and α2 I-domains, using the α I-domain assay described in Example 4. […] L3015 could inhibit the binding of both α1I and α2 I-domains to type I and type IV collagen (FIG. 6B).
Furthermore α1I and α2 I-domain binding to collagen I in the presence of lovastatin was tested in the europium-labelled anti-GST assay described in Example 4. Lovastatin is an allosteric inhibitor of leukocyte integrin α I-domains (e.g. αL I-domain), and the binding site of lovastatin represents an optional binding site for possible modulators. […] These biological tests gave further evidence that collagen receptor α I-domains are inhibited by direct blocking of the MIDAS surface by tetracyclic polyketide.

[2] = target: T2, CHO cells expressing α2β1 integrin (Homo sapiens, UniProt P05556+P17301); assay: Cell adhesion assay, CHO-α2 cells on collagen type I; type: cell-based, Chinese Hamster; conditions: CHO cells expressing α2β1; FIG. 10A; read-out: EC50 of cell adhesion to type I collagen
T2 sequence (P17301 1-1181): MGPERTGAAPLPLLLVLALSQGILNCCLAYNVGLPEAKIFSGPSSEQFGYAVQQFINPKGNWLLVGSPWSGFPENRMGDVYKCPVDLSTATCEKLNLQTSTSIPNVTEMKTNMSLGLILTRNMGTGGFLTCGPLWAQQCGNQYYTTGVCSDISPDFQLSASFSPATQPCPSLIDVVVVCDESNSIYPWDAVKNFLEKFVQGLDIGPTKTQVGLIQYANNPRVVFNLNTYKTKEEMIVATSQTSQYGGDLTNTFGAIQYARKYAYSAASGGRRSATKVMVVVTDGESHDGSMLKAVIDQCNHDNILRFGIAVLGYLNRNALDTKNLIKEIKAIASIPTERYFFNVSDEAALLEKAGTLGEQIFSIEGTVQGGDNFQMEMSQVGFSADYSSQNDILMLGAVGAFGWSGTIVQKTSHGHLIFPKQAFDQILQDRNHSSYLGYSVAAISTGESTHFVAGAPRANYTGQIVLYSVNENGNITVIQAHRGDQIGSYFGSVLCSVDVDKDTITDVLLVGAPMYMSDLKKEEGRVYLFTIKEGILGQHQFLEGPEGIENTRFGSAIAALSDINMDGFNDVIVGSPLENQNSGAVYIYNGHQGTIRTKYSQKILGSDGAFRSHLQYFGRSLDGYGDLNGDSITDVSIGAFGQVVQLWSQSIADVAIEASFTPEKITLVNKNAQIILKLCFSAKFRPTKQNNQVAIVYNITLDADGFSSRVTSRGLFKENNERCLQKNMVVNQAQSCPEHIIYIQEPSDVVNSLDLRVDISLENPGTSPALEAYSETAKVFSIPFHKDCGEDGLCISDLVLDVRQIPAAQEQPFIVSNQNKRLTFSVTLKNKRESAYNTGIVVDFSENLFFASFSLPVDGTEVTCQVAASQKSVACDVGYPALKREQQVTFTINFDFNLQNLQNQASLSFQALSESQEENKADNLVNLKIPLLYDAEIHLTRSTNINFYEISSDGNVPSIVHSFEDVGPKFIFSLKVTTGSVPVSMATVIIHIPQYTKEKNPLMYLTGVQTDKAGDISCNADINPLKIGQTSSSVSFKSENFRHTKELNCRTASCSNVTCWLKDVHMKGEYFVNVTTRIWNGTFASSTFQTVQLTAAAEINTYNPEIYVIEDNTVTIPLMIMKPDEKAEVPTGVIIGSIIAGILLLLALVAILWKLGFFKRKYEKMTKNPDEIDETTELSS
Description: (§1) Chinese Hamster Ovary (CHO) cell clone expressing wild type α2 integrin was used in cell adhesion assay. Cells were suspended in serum free medium containing 0.1 mg/ml cycloheximide (Sigma) and the compounds were preincubated with the cells prior to transfer to the wells. Cells (150000/well) were allowed to attach on collagen type I coated wells (in the presence and absence of inhibitor compounds) for 2 h at +37° C. and after that non-adherent cells were removed. Fresh serum free medium was added and the living cells were detected using a cell viability kit (Roche) according to the manufacturers protocol.
(§2) For this purpose CHO cells were transfected to express α2β1 integrin on their surface as their only collagen receptor.

[3] = target: T3, CHO cells expressing α2β1 integrin (Homo sapiens, UniProt P17301); assay: as above; type: cell-based, Chinese Hamster; conditions: FIG. 10A, 10B
T3 sequence (P17301 1-1181): T2 sequence (P17301 1-1181)
Description: as §1, §2

In the case of `COC(=O)c1c(C(C)C)cc(O)c2c(O)c3c(c(O)c12)C(=O)c1cccc(O)c1C3=O` [Compound L3009, methyl 4,5,7,12-tetrahydroxy-2-methylethyl)-6,11-dioxonaphthacenecarboxylate], the “inhibition of collagen I binding of α1I” value [1] was “could inhibit”, the pEC50 [2] was ~4.70 and the “inhibition of cell adhesion to collagen type I (in words)” value [3] was “potent inhibitor”.
